Laboratory results published in patent US8258114B2, “Modulation of glucose-6-phosphatase translocase expression” (Isis Pharmaceuticals, Inc., priority 2004, dated 2012).
Oligonucleotides are written 5' to 3', each unit as a sugar letter and its base; * is a phosphorothioate linkage, no mark a phosphodiester; rarer units and linkages stand in square brackets, end groups in braces. Plain capitals give the bases only. e = 2'-O-(2-methoxyethyl) (MOE); [5mC] = 5-methylcytosine; d = 2'-deoxy (DNA)

These sequences were tested on human glucose-6-phosphatase translocase mRNA (assay: Antisense inhibition of human glucose-6-phosphatase translocase mRNA in HepG2 cells (Table 11)). Details: LIPOFECTIN, mRNA by real-time PCR.
Assay type: cell-based
Parameters: concentration or dose not given beside the values
Experimental: The human hepatoblastoma cell line HepG2 was obtained from the American Type Culture Collection (Manassas, Va.). HepG2 cells were routinely cultured in Eagle's MEM supplemented with 10% fetal bovine serum, 1 mM non-essential amino acids, and 1 mM sodium pyruvate (Invitrogen Life Technologies, Carlsbad, Calif.). Cells were routinely passaged by trypsinization and dilution when they reached approximately 90% confluence. Multiwell culture plates are prepared for cell culture by coating with a 1:100 dilution of type 1 rat tail collagen (BD Biosciences, Bedford, Mass.) in phosphate-buffered saline. The collagen-containing plates were incubated at 37° C. for approximately 1 hour, after which the collagen was removed and the wells were washed twice with phosphate-buffered saline. Cells were seeded into 96-well plates (Falcon-Primaria #353872, BD Biosciences, Bedford, Mass.) at a density of approximately 8,000 cells/well for use in oligomeric compound transfection experiments.
When cells reached 65-75% confluency, they were treated with oligonucleotide. Oligonucleotide was mixed with LIPOFECTIN™ Invitrogen Life Technologies, Carlsbad, Calif.) in Opti-MEM™-1 reduced serum medium (Invitrogen Life Technologies, Carlsbad, Calif.) to achieve the desired concentration of oligonucleotide and a LIPOFECTIN™ concentration of 2.5 or 3 μg/mL per 100 nM oligonucleotide. This transfection mixture was incubated at room temperature for approximately 0.5 hours. For cells grown in 96-well plates, wells were washed once with 100 μL OPTI-MEM™-1 and then treated with 130 μL of the transfection mixture. Cells grown in 24-well plates or other standard tissue culture plates are treated similarly, using appropriate volumes of medium and oligonucleotide. Cells are treated and data are obtained in duplicate or triplicate. After approximately 4-7 hours of treatment at 37° C., the medium containing the transfection mixture was replaced with fresh culture medium. Cells were harvested 16-24 hours after oligonucleotide treatment.
(§1) Quantitation of glucose 6-phosphatase translocase mRNA levels was accomplished by real-time quantitative PCR using the ABI PRISM™ 7600, 7700, or 7900 Sequence Detection System (PE-Applied Biosystems, Foster City, Calif.) according to manufacturer's instructions.
(§2) Prior to quantitative PCR analysis, primer-probe sets specific to the target gene being measured were evaluated for their ability to be “multiplexed” with a GAPDH amplification reaction. After isolation the RNA is subjected to sequential reverse transcriptase (RT) reaction and real-time PCR, both of which are performed in the same well. RT and PCR reagents were obtained from Invitrogen Life Technologies (Carlsbad, Calif.). […] The RT reaction was carried out by incubation for 30 minutes at 48° C. Following a 10 minute incubation at 95° C. to activate the PLATINUM® Taq, 40 cycles of a two-step PCR protocol were carried out: 95° C. for 15 seconds (denaturation) followed by 60° C. for 1.5 minutes (annealing/extension).
(§3) Gene target quantities obtained by RT, real-time PCR were normalized using either the expression level of GAPDH, a gene whose expression is constant, or by quantifying total RNA using RiboGreen™ (Molecular Probes, Inc. Eugene, Oreg.). GAPDH expression was quantified by RT, real-time PCR, by being run simultaneously with the target, multiplexing, or separately. Total RNA was quantified using RiboGreen™ RNA quantification reagent (Molecular Probes, Inc. Eugene, Oreg.).
A series of oligomeric compounds was designed to target different regions of human glucose-6-phosphatase translocase, using published sequences cited in Table 1. All compounds in Table 4 are chimeric oligonucleotides (“gapmers”) 20 nucleotides in length, composed of a central “gap” region consisting of 10 2′-deoxynucleotides, which is flanked on both sides (5′ and 3′) by five-nucleotide “wings”. The wings are composed of 2′-O-(2-methoxyethyl) nucleotides, also known as 2′-MOE nucleotides. […]

Sequence	% Inhib
ACAACCACACACAGTGCCCC (eA*e[5mC]*eA*eA*e[5mC]*d[5mC]*dA*d[5mC]*dA*d[5mC]*dA*d[5mC]*dA*dG*dT*eG*e[5mC]*e[5mC]*e[5mC]*e[5mC]; antisense) [ISIS 359519]	53%
ACAGCTCCCAATACCAGGAT (eA*e[5mC]*eA*eG*e[5mC]*dT*d[5mC]*d[5mC]*d[5mC]*dA*dA*dT*dA*d[5mC]*d[5mC]*eA*eG*eG*eA*eT; antisense) [ISIS 359537]	93%
ACATCAGCAGGTTCATTGTG (eA*e[5mC]*eA*eT*e[5mC]*dA*dG*d[5mC]*dA*dG*dG*dT*dT*d[5mC]*dA*eT*eT*eG*eT*eG; antisense) [ISIS 359523]	43%
ACCAAGTGCCAAACTGAGAT (eA*e[5mC]*e[5mC]*eA*eA*dG*dT*dG*d[5mC]*d[5mC]*dA*dA*dA*d[5mC]*dT*eG*eA*eG*eA*eT; antisense) [ISIS 359509]	24%
ACTCGGCCCATCTTGGTGCG (eA*e[5mC]*eT*e[5mC]*eG*dG*d[5mC]*d[5mC]*d[5mC]*dA*dT*d[5mC]*dT*dT*dG*eG*eT*eG*e[5mC]*eG; antisense) [ISIS 359548]	96%
AGAGGAAGGAGACAACCACA (eA*eG*eA*eG*eG*dA*dA*dG*dG*dA*dG*dA*d[5mC]*dA*dA*e[5mC]*e[5mC]*eA*e[5mC]*eA; antisense) [ISIS 359521]	32%
AGCAGGTTCATTGTGGATGA (eA*eG*e[5mC]*eA*eG*dG*dT*dT*d[5mC]*dA*dT*dT*dG*dT*dG*eG*eA*eT*eG*eA; antisense) [ISIS 359522]	91%
AGCCAGGTTCATGCTGGTTG (eA*eG*e[5mC]*e[5mC]*eA*dG*dG*dT*dT*d[5mC]*dA*dT*dG*d[5mC]*dT*eG*eG*eT*eT*eG; antisense) [ISIS 359513]	62%
ATGGCCCACCAAGTGCCAAA (eA*eT*eG*eG*e[5mC]*d[5mC]*d[5mC]*dA*d[5mC]*d[5mC]*dA*dA*dG*dT*dG*e[5mC]*e[5mC]*eA*eA*eA; antisense) [ISIS 359510]	38%
CAAATACAGCTCCCAATACC (e[5mC]*eA*eA*eA*eT*dA*d[5mC]*dA*dG*d[5mC]*dT*d[5mC]*d[5mC]*d[5mC]*dA*eA*eT*eA*e[5mC]*e[5mC]; antisense) [ISIS 359538]	29%
CAAGGAGCCCTTCTTGCCCT (e[5mC]*eA*eA*eG*eG*dA*dG*d[5mC]*d[5mC]*d[5mC]*dT*dT*d[5mC]*dT*dT*eG*e[5mC]*e[5mC]*e[5mC]*eT; antisense) [ISIS 359524]	56%
CAGGCCAACCAGGAGCAGCC (e[5mC]*eA*eG*eG*e[5mC]*d[5mC]*dA*dA*d[5mC]*d[5mC]*dA*dG*dG*dA*dG*e[5mC]*eA*eG*e[5mC]*e[5mC]; antisense) [ISIS 359508]	68%
CATGCTGGTTGACAGGATGG (e[5mC]*eA*eT*eG*e[5mC]*dT*dG*dG*dT*dT*dG*dA*d[5mC]*dA*dG*eG*eA*eT*eG*eG; antisense) [ISIS 359512]	43%
CCAACCAGGAGCAGCCCAGA (e[5mC]*e[5mC]*eA*eA*e[5mC]*d[5mC]*dA*dG*dG*dA*dG*d[5mC]*dA*dG*d[5mC]*e[5mC]*e[5mC]*eA*eG*eA; antisense) [ISIS 359507]	49%
CCAGCCCTCCAGCCAGGTTC (e[5mC]*e[5mC]*eA*eG*e[5mC]*d[5mC]*d[5mC]*dT*d[5mC]*d[5mC]*dA*dG*d[5mC]*d[5mC]*dA*eG*eG*eT*eT*e[5mC]; antisense) [ISIS 359516]	69%
CCAGCGTGCTGCGCCAGCTG (e[5mC]*e[5mC]*eA*eG*e[5mC]*dG*dT*dG*d[5mC]*dT*dG*d[5mC]*dG*d[5mC]*d[5mC]*eA*eG*e[5mC]*eT*eG; antisense) [ISIS 359518]	47%
CCAGGAGCAGCCCAGAAGAG (e[5mC]*e[5mC]*eA*eG*eG*dA*dG*d[5mC]*dA*dG*d[5mC]*d[5mC]*d[5mC]*dA*dG*eA*eA*eG*eA*eG; antisense) [ISIS 359506]	58%
CCATACGAGGAGAAACCAAA (e[5mC]*e[5mC]*eA*eT*eA*d[5mC]*dG*dA*dG*dG*dA*dG*dA*dA*dA*e[5mC]*e[5mC]*eA*eA*eA; antisense) [ISIS 359542]	46%
CCATCTTGGTGCGGATGTTT (e[5mC]*e[5mC]*eA*eT*e[5mC]*dT*dT*dG*dG*dT*dG*d[5mC]*dG*dG*dA*eT*eG*eT*eT*eT; antisense) [ISIS 359547]	91%
CCCTCCAGCCAGGTTCATGC (e[5mC]*e[5mC]*e[5mC]*eT*e[5mC]*d[5mC]*dA*dG*d[5mC]*d[5mC]*dA*dG*dG*dT*dT*e[5mC]*eA*eT*eG*e[5mC]; antisense) [ISIS 359515]	62%
CGAGGAGAAACCAAATACAG (e[5mC]*eG*eA*eG*eG*dA*dG*dA*dA*dA*d[5mC]*d[5mC]*dA*dA*dA*eT*eA*e[5mC]*eA*eG; antisense) [ISIS 359541]	41%
CTGGTCACTGTTACCCGGAA (e[5mC]*eT*eG*eG*eT*d[5mC]*dA*d[5mC]*dT*dG*dT*dT*dA*d[5mC]*d[5mC]*e[5mC]*eG*eG*eA*eA; antisense) [ISIS 359533]	69%
CTGGTTGACAGGATGGCCCA (e[5mC]*eT*eG*eG*eT*dT*dG*dA*d[5mC]*dA*dG*dG*dA*dT*dG*eG*e[5mC]*e[5mC]*e[5mC]*eA; antisense) [ISIS 359511]	55%
GAAACCAAATACAGCTCCCA (eG*eA*eA*eA*e[5mC]*d[5mC]*dA*dA*dA*dT*dA*d[5mC]*dA*dG*d[5mC]*eT*e[5mC]*e[5mC]*e[5mC]*eA; antisense) [ISIS 359539]	38%
GAACTGGCCCCAGTCAGTAC (eG*eA*eA*e[5mC]*eT*dG*dG*d[5mC]*d[5mC]*d[5mC]*d[5mC]*dA*dG*dT*d[5mC]*eA*eG*eT*eA*e[5mC]; antisense) [ISIS 359528]	45%

Each sequence was assayed on mouse glucose-6-phosphatase translocase mRNA (assay: Antisense inhibition of mouse glucose-6-phosphatase translocase mRNA in primary mouse hepatocytes, 50 nM (Table 5)). Details: 50 nM oligonucleotide, mRNA by real-time PCR, normalized with RIBOGREEN.
Assay type: cell-based
Experimental: Primary mouse hepatocytes were prepared from CD-1 mice purchased from Charles River Labs. Primary mouse hepatocytes were routinely cultured in Hepatocyte Attachment Media supplemented with 10% fetal bovine serum (Invitrogen Life Technologies, Carlsbad, Calif.), 250 nM dexamethasone, and 10 nM bovine insulin (Sigma-Aldrich, St. Louis, Mo.). Cells were seeded into 96-well plates (Falcon-Primaria #353872, BD Biosciences, Bedford, Mass.) at a density of approximately 4,000-6,000 cells/well for use in oligomeric compound transfection experiments.
as §1, §2, §3
A series of oligomeric compounds was designed to target different regions of mouse glucose-6-phosphatase translocase, using published sequences cited in Table 1. All compounds in Table 5 are chimeric oligonucleotides (“gapmers”) 20 nucleotides in length, composed of a central “gap” region consisting of 10 2′-deoxynucleotides, which is flanked on both sides (5′ and 3′) by five-nucleotide “wings”. The wings are composed of 2′-O-(2-methoxyethyl) nucleotides, also known as 2′-MOE nucleotides. The internucleoside (backbone) linkages are phosphorothioate throughout the oligonucleotide. All cytidine residues are 5-methylcytidines. The compounds were analyzed for their effect on gene target mRNA levels by quantitative real-time PCR as described in other examples herein, using the following primer-probe set designed to hybridize to mouse glucose-6-phosphatase translocase: • forward primer: […] (SEQ ID NO: 66) • reverse primer: CCATCCCAGCCATCATGAG (SEQ ID NO: 67) and the PCR probe was: FAM-[…]-TAMRA (SEQ ID NO: 68) where FAM is the fluorescent reporter dye and TAMRA is the quencher dye. Mouse target gene quantities were normalized by quantifying total RNA using RIBOGREEN™.
Data are from experiments in which primary mouse hepatocytes were treated with 50 nM of the antisense oligonucleotides of the present invention. A reduction in expression is expressed as percent inhibition in Table 5. If present, “N.D.” indicates “not determined”. The target regions to which these oligomeric compounds are inhibitory are herein referred to as “validated target segments.”

Sequence	% Inhib
TGCCTGGATCTGCTGAGCTG (eT*eG*e[5mC]*e[5mC]*eT*dG*dG*dA*dT*d[5mC]*dT*dG*d[5mC]*dT*dG*eA*eG*e[5mC]*eT*eG; antisense) [ISIS 148936]	39%
TGTGCTCCAGCTATAGTGCT (eT*eG*eT*eG*e[5mC]*dT*d[5mC]*d[5mC]*dA*dG*d[5mC]*dT*dA*dT*dA*eG*eT*eG*e[5mC]*eT; antisense) [ISIS 148981]	59%
